Key:
[1] = test system: partial thickness chondral defects in the medial femoral condyle; assay: Chondral defect model, retention of Compound 4-augmented MSCs (histological cell retention score); type: in vivo, sheep; conditions: for Cell Retention (average score, n = 5): score 0-2
Protocol: The capacity of ovine MSCs derived from bone marrow and augmented with Compound 4 to bind to lesions in cartilage in vivo was evaluated in a chondral defect model.
Bone marrow aspirate was collected from fifteen healthy nave female sheep and processed in vitro to attain a population of mesenchymal stem cells (MSCs) for each sheep created by expansion of adherent cells. MSCs were frozen at passage 1 (P1).
Two circular partial thickness chondral defects were surgically created bilaterally in the medial femoral condyle of each sheep, thereby creating four defects per sheep. Once the medial femoral condyle was surgically exposed, two partial thickness circular defects were created in the cartilage of the anterior aspect, separated by 2-3 mm. Each defect was created by penetrating the cartilage with a 7 mm diameter biopsy punch to delineate the margins followed by removal of cartilage within the defect margin with a scalpel to a depth of approximately 0.5 mm-0.8 mm without penetrating the surface of the calcified cartilage. Within the same animal, each defect received one of four experimental treatments: • a. D1: Empty Control: defect left unfilled; • b. D2: Vehicle Control: cells incubated in PBS delivered to the defect; • c. D3: 100 μM Compound 4 incubated in defect followed by delivery of cells to the defect; and • d. D4: Cells were incubated with 10 μM Compound 4 for 30 min and together they were delivered to defect.
Sheep were divided into three groups of 5 sheep. One group was sacrificed on day 1 after surgery, the second group was sacrificed on day 7, and the third group was sacrificed on day 14 after surgery.
The complete intact joint was harvested and transported to the laboratory. The joint was exposed, and defects were scored macroscopically prior to separating out bone blocks containing the defects with a band saw. Defects were further trimmed and individually separated using a fine ISOMET® saw prior to fixation in 10% neutral buffered formalin. Tissue was further trimmed for histological processing, fixed, and decalcified for at least one week.
As each sample completed decalcification, it was transferred to 40% EtOH until all samples were decalcified and the last sample had been in 40% EtOH for at least 24 hours.
Following decalcification, specimens were prepared for histology staining with safranin-orange, fast green and haematoxylin-eosin.
Histological Assessment of Compound 4-Augmented Cell Retention
Histological slides were stained with Haematoxylin & Eosin and Safranin Orange for evaluation of cell retention and the early stages of cartilage repair. Cell retention was assessed using the following scoring system: […]

[2] = test system: Raji cells; assay: Binding to Raji cells (fluorescence, Gel Logic system); type: cell-based; conditions: 10 μM in PBS; 1, 5, 15 or 30 minutes; 530 nm/600 nm; FIG. 2B
Protocol: 10^6 Raji cells were incubated with 10 μM Compound 4 or 10 μM Compound 20 in PBS or with PBS alone for 1, 5, 15 or 30 minutes. Cells were washed once in PBS and then the fluorescence of Compound 4 or Compound 20 was analyzed in a Gel Logic system with 530 nm/600 nm excitation/emission settings.

[3] = test system: human MSCs; assay: Adherence of human MSCs to rabbit dorsal femoral condyle explants; type: cell-based; conditions: photomicrographs, FIG. 6A
[4] = test system: rabbit dorsal femoral condyle explants; assay: Binding to and staining of rabbit dorsal femoral condyle explants; conditions: photomicrographs, FIGS. 5A-B
[5] = test system: hMSCs; assay: Differentiation of human MSCs to chondrocytes in pellet culture (aggrecan stain); type: cell-based; conditions: for ECM area (Aggrecan stain): 10 μM, 21 days, Differentiation Medium +, aggrecan ratio relative to cell number; for Differentiation of hMSCs to chondrocytes (in words): compound and differentiation medium, with or without priming, relative to control without differentiation medium
Protocol: hMSCs (Lonza, Cat No PT-2501) were cultured in complete mesenchymal stem cell culture medium (Lonza, Cat No PT-3238). For differentiation experiments, complete mesenchymal stem cell culture medium was removed, and hMSCs were either incubated for 30 min in chondrocyte differentiation medium containing TGFβ (R&D Systems, Cat No CCM005 and CCM006) (primed condition) or maintained in complete mesenchymal stem cell culture medium for 30 min.
hMSCs were collected, washed in PBS, and incubated in 500 μL of 10 μM Compound 4 or 20 in PBS for 20 min. Cells were washed in PBS and counted. 5×10^5 cells were placed in a 15 mL tube. The cells were centrifuged at 500 g for 7 min, and either 500 μL of maintenance medium (Lonza, Cat No PT-3238) or chondrocyte differentiation medium was added gently. The medium was changed every 2 to 3 days for three weeks, maintaining the 500 μL volume.
After three weeks, the medium was removed, and cell pellets were fixed in 500 μL of a 4% paraformaldehyde (PFA) in PBS solution for 20 min at room temperature. The solution was removed, and 500 μL of a 4% PFA, 15% sucrose in PBS was added, and the mixture was left overnight. The solution was removed, and 500 μL of a 4% PFA, 30% sucrose in PBS was added, then the mixture was left overnight or until the pellet was in the bottom of the tube. The pellet culture was frozen in TISSUE-TEK® O.C.T. compound (Cat No 4583), and 5 μm cuts were made. The slices were fixed on a positive charged slide (Cell Path, Cat No MDB-0102-54A). A hydrophobic pen was used to draw a line around the cuts on the slide.
100-300 μL of blocking solution (1% BSA, 0.3% TRITON® X-100 in PBS) was added on top of the slices which were left for 1 h at RT. The blocking solution was extracted with a micropipette. Primary antibody (goat anti-aggrecan G1-IgD-G2 domain, R&D systems, Cat No AF1220) was diluted 1:20 in blocking solution, and 100-200 μL of this solution was added on top of the slices. The slides were left at 4° C. overnight in a humidified box. The primary antibody solutions were removed, and the slices were washed 3 times with 1% BSA in PBS for 5 min. The lines were redrawn around the slices with the hydrophobic pen. From the incubation with the secondary antibody and on, the samples were kept in the dark to avoid degrading the fluorophore.
The secondary antibodies were diluted 1:100 in blocking solution. 100-200 μL of the secondary antibody solution (donkey anti-goat IgG Alexa fluor 488, Invitrogen, Cat No A11055) was added to the slices. The slices were incubated for 1 h at RT. The slices were washed 3 times with 1% BSA in PBS for 5 min. The lines were redrawn around the slices with the hydrophobic pen.
Slices were stained with 100-200 μL of a 1:2000 dilution of DAPI in PBS for 5 min at RT. The DAPI was removed, and the slices were washed 3 times with PBS for 5 min, then washed a 4th time with distilled water for another 5 min. The slides were left to dry. 30 μL of Fluorescent Mounting Medium was added, and then the slices were covered with a coverslip.

[6] = test system: Raji cells; assay: Viability of Raji cells treated with compound (Example B2); type: cell-based; conditions: concentrations of 20 μM or below, FIG. 3C

Compound	Cell Retention (average score, n = 5) ([1]; D3: 100 μM incubated in defect followed by delivery of cells, Day 1)	Cell Retention (average score, n = 5) ([1]; D3: 100 μM incubated in defect followed by delivery of cells, Day 7)	Cell Retention (average score, n = 5) ([1]; D3: 100 μM incubated in defect followed by delivery of cells, Day 14)	Cell Retention (average score, n = 5) ([1]; D4: cells pre-incubated with 10 μM for 30 min, then delivered to defect, Day 1)	Cell Retention (average score, n = 5) ([1]; D4: cells pre-incubated with 10 μM for 30 min, then delivered to defect, Day 7)	Cell Retention (average score, n = 5) ([1]; D4: cells pre-incubated with 10 μM for 30 min, then delivered to defect, Day 14)	MSC retention (in words) ([1]; sheep chondral defect model, summary of Table B9)	Binding to Raji cells (fluorescence) [2]	adherence of human MSCs to rabbit dorsal femoral condyle explants [3]	binding to and staining of rabbit dorsal femoral condyle explants [4]	ECM area (Aggrecan stain) ([5]; Priming +)	ECM area (Aggrecan stain) ([5]; Priming −)	Differentiation of hMSCs to chondrocytes (in words) [5]	viability of Raji cells relative to untreated control Raji cells [6]
Cc1cc2nc3cc(C)c(NCCCCCCCCNc4cc5c(cc4C)nc4cc(C)c(N)cc4[n+]5-c4ccccc4)cc3[n+](-c3ccccc3)c2cc1N.[Cl-].[Cl-] [Compound 4, 7,7′-(octane-1,8-diylbis(azanediyl))bis(3-amino-2,8-dimethyl-5-phenylphenazin-5-ium) chloride]	0.75	0.75	1.2	0.4	1.0	1.25	promotes MSC retention	bind to Raji cells	promote adherence	bind to and stain	1.41	0.74	induced high levels of differentiation	
Cc1cc2nc3cc(C)c(NCCCCCCNC(=O)c4ccc(-c5ccc(C(=O)NCCCCCCNc6cc7c(cc6C)nc6cc(C)c(N)cc6[n+]7-c6ccccc6)cc5)cc4)cc3[n+](-c3ccccc3)c2cc1N.[Cl-].[Cl-] [Compound 20, (3-amino-7-{[6-({4-[4-({6-[(7-amino-5-chloranuide-2,8-dimethyl-5-phenyl-5λ^6,10-phenazin-5-ylium-3-yl)amino]hexyl}carbamoyl)phenyl]phenyl}formamido)hexyl]amino}-2,8-dimethyl-5-phenyl-5λ^6,10-phenazin-5-ylium-5-e)chloranuide]								bind to Raji cells	promote adherence	bind to and stain	0.97	0.74	induced high levels of differentiation	do not affect

Source: patent US20170119907A1, “Targeted Therapeutics” (MEDIVATION TECHNOLOGIES, INC., priority 2014, published 2017)
